Measured values reported in ChEMBL document CHEMBL1201862, “PubChem BioAssay data set” (2004).
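Five compound concentrations were applied to cells in 96-well plates for 48 hours; endpoints were derived by simple linear interpolation of the resulting dose-response curve. GI50 marks 50% less growth.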 Activity calls are given as the source filed them. Cut-off read from the data, not from the text of the source: active = GI50 up to about 1.1 µM and inactive = higher.

Experiments:
Experiment in all cases: inhibition of tumour cell growth, NCI panel, 48 h
[1] = test system: Hs-578T
[2] = test system: K562
[3] = test system: DU-145
[4] = test system: MDA-MB-231
[5] = test system: UACC-257
[6] = test system: M14
[7] = test system: HCT-116
[8] = test system: SR
[9] = test system: COLO 205
[10] = test system: MOLT-4
[11] = test system: SK-MEL-28
[12] = test system: PC-3
[13] = test system: Malme-3M
[14] = test system: NCI-H460
[15] = test system: UO-31
[16] = test system: LOX IMVI
[17] = test system: HT-29
[18] = test system: HOP-62
[19] = test system: HOP-92
[20] = test system: SNB-75
[21] = test system: SF-295
[22] = test system: CCRF-CEM
[23] = test system: EKVX
[24] = test system: HCC 2998
[25] = test system: OVCAR-3
[26] = test system: TK-10
[27] = test system: OVCAR-4
[28] = test system: HCT-15
[29] = test system: U-251
[30] = test system: A498
[31] = test system: SW-620
[32] = test system: MCF7
[33] = test system: OVCAR-8
[34] = test system: T47D
[35] = test system: NCI-H23
[36] = test system: IGROV-1
[37] = test system: SF-539
[38] = test system: SK-MEL-5
[39] = test system: KM12
[40] = test system: SN12C
[41] = test system: OVCAR-5
[42] = test system: NCI-H226
[43] = test system: MDA-N
[44] = test system: 786-0
[45] = test system: CAKI-1
[46] = test system: SNB-19
[47] = test system: BT-549
[48] = test system: UACC-62
[49] = test system: SK-MEL-2
[50] = test system: NCI/ADR-RES
[51] = test system: MDA-MB-435
[52] = test system: A549
[53] = test system: SK-OV-3
[54] = test system: ACHN

## CCO/C(Cc1ccc(Cl)cc1)=N/NC(N)=S
[1]
  GI50: > 100 µM (inactive)
[2]
  GI50: 83 µM (inactive)
[3]
  GI50: > 100 µM (inactive)
[4]
  GI50: > 100 µM (inactive)
[5]
  GI50: > 100 µM (inactive)
[6]
  GI50: > 100 µM (inactive)
[7]
  GI50: > 100 µM (inactive)
[8]
  GI50: > 100 µM (inactive)
[9]
  GI50: > 100 µM (inactive)
[10]
  GI50: > 100 µM (inactive)
[11]
  GI50: > 100 µM (inactive)
[12]
  GI50: > 100 µM (inactive)
[13]
  GI50: > 100 µM (inactive)
[14]
  GI50: > 100 µM (inactive)
[15]
  GI50: 72.9 µM (inactive)
[16]
  GI50: > 100 µM (inactive)
[17]
  GI50: > 100 µM (inactive)
[18]
  GI50: > 100 µM (inactive)
[19]
  GI50: > 100 µM (inactive)
[20]
  GI50: > 100 µM (inactive)
[21]
  GI50: > 100 µM (inactive)
[22]
  GI50: > 100 µM (inactive)
[23]
  GI50: > 100 µM (inactive)
[24]
  GI50: > 100 µM (inactive)
[25]
  GI50: > 100 µM (inactive)
[26]
  GI50: > 100 µM (inactive)
[27]
  GI50: > 100 µM (inactive)
[28]
  GI50: > 100 µM
[29]
  GI50: > 100 µM (inactive)
[30]
  GI50: > 100 µM (inactive)
[31]
  GI50: > 100 µM (inactive)
[32]
  GI50: > 100 µM (inactive)
[33]
  GI50: > 100 µM (inactive)
[34]
  GI50: 27.8 µM (inactive)
[35]
  GI50: > 100 µM (inactive)
[36]
  GI50: > 100 µM (inactive)
[37]
  GI50: > 100 µM (inactive)
[38]
  GI50: 84.5 µM (inactive)
[39]
  GI50: > 100 µM (inactive)
[40]
  GI50: > 100 µM (inactive)
[41]
  GI50: > 100 µM (inactive)
[42]
  GI50: > 100 µM (inactive)
[43]
  GI50: > 100 µM (inactive)
[44]
  GI50: > 100 µM (inactive)
[45]
  GI50: > 100 µM (inactive)
[46]
  GI50: > 100 µM (inactive)
[47]
  GI50: > 100 µM (inactive)
[48]
  GI50: > 100 µM (inactive)
[49]
  GI50: > 100 µM (inactive)
[50]
  GI50: > 100 µM (inactive)
[51]
  GI50: > 100 µM (inactive)
[52]
  GI50: > 100 µM (inactive)
[53]
  GI50: > 100 µM (inactive)
[54]
  GI50: > 100 µM (inactive)
